Where two headings read alike, the source gives them in different places.
Key:
[1] = biodistribution of [18F]6 in immature female Sprague-Dawley rats; type: in vivo; conditions: 1 h
[2] = preliminary tissue distribution of [18F]6 in female C57BL/6 mice; type: in vivo; conditions: data not shown
[3] = type: in vivo, Sprague-Dawley rats; conditions: 1 h, Letrozole + PMSG treated

percentage injected dose/gram, blood ([1]; DPN blocked (200 μg)): 0.22 ± 0.03 %ID/g
percentage injected dose/gram, blood ([1]; E2 blocked (estradiol 20 μg)): 0.25 ± 0.07 %ID/g
percentage injected dose/gram, blood ([1]; PPT blocked (200 μg)): 0.24 ± 0.06 %ID/g
percentage injected dose/gram, blood ([1]; 13 μCi iv): 0.22 ± 0.05 %ID/g
percentage injected dose/gram, bone ([1]; DPN blocked (200 μg)): 0.40 ± 0.04 %ID/g
percentage injected dose/gram, bone ([1]; E2 blocked (estradiol 20 μg)): 0.37 ± 0.04 %ID/g
percentage injected dose/gram, bone ([1]; PPT blocked (200 μg)): 0.43 ± 0.12 %ID/g
percentage injected dose/gram, bone ([1]; 13 μCi iv): 0.36 ± 0.04 %ID/g
percentage injected dose/gram, fat ([1]; DPN blocked (200 μg)): 0.58 ± 0.08 %ID/g
percentage injected dose/gram, fat ([1]; E2 blocked (estradiol 20 μg)): 0.58 ± 0.10 %ID/g
percentage injected dose/gram, fat ([1]; PPT blocked (200 μg)): 0.68 ± 0.19 %ID/g
percentage injected dose/gram, fat ([1]; 13 μCi iv): 0.55 ± 0.09 %ID/g
percentage injected dose/gram, heart ([1]; DPN blocked (200 μg)): 0.18 ± 0.03 %ID/g
percentage injected dose/gram, heart ([1]; E2 blocked (estradiol 20 μg)): 0.21 ± 0.04 %ID/g
percentage injected dose/gram, heart ([1]; PPT blocked (200 μg)): 0.19 ± 0.04 %ID/g
percentage injected dose/gram, heart ([1]; 13 μCi iv): 0.18 ± 0.04 %ID/g
percentage injected dose/gram, kidney ([1]; DPN blocked (200 μg)): 0.70 ± 0.10 %ID/g
percentage injected dose/gram, kidney ([1]; E2 blocked (estradiol 20 μg)): 0.78 ± 0.15 %ID/g
percentage injected dose/gram, kidney ([1]; PPT blocked (200 μg)): 0.78 ± 0.19 %ID/g
percentage injected dose/gram, kidney ([1]; 13 μCi iv): 0.64 ± 0.14 %ID/g
percentage injected dose/gram, liver ([1]; DPN blocked (200 μg)): 1.50 ± 0.20 %ID/g
percentage injected dose/gram, liver ([1]; E2 blocked (estradiol 20 μg)): 1.63 ± 0.26 %ID/g
percentage injected dose/gram, liver ([1]; PPT blocked (200 μg)): 1.54 ± 0.39 %ID/g
percentage injected dose/gram, liver ([1]; 13 μCi iv): 1.52 ± 0.23 %ID/g
percentage injected dose/gram, lung ([1]; DPN blocked (200 μg)): 0.33 ± 0.05 %ID/g
percentage injected dose/gram, lung ([1]; E2 blocked (estradiol 20 μg)): 0.39 ± 0.06 %ID/g
percentage injected dose/gram, lung ([1]; PPT blocked (200 μg)): 0.45 ± 0.12 %ID/g
percentage injected dose/gram, lung ([1]; 13 μCi iv): 0.39 ± 0.09 %ID/g
percentage injected dose/gram, muscle ([1]; DPN blocked (200 μg)): 0.15 ± 0.01 %ID/g
percentage injected dose/gram, muscle ([1]; E2 blocked (estradiol 20 μg)): 0.19 ± 0.05 %ID/g
percentage injected dose/gram, muscle ([1]; PPT blocked (200 μg)): 0.19 ± 0.05 %ID/g
percentage injected dose/gram, muscle ([1]; 13 μCi iv): 0.15 ± 0.03 %ID/g
percentage injected dose/gram, ovaries ([1]; DPN blocked (200 μg)): 0.33 ± 0.04 %ID/g
percentage injected dose/gram, ovaries ([1]; E2 blocked (estradiol 20 μg)): 0.44 ± 0.15 %ID/g
percentage injected dose/gram, ovaries ([1]; PPT blocked (200 μg)): 0.37 ± 0.13 %ID/g
percentage injected dose/gram, ovaries ([1]; 13 μCi iv): 0.30 ± 0.11 %ID/g
percentage injected dose/gram, spleen ([1]; DPN blocked (200 μg)): 0.15 ± 0.02 %ID/g
percentage injected dose/gram, spleen ([1]; E2 blocked (estradiol 20 μg)): 0.16 ± 0.03 %ID/g
percentage injected dose/gram, spleen ([1]; PPT blocked (200 μg)): 0.16 ± 0.05 %ID/g
percentage injected dose/gram, spleen ([1]; 13 μCi iv): 0.15 ± 0.03 %ID/g
percentage injected dose/gram, thymus ([1]; DPN blocked (200 μg)): 0.12 ± 0.02 %ID/g
percentage injected dose/gram, thymus ([1]; E2 blocked (estradiol 20 μg)): 0.13 ± 0.03 %ID/g
percentage injected dose/gram, thymus ([1]; PPT blocked (200 μg)): 0.12 ± 0.02 %ID/g
percentage injected dose/gram, thymus ([1]; 13 μCi iv): 0.12 ± 0.03 %ID/g
percentage injected dose/gram, uterus ([1]; DPN blocked (200 μg)): 0.23 ± 0.05 %ID/g
percentage injected dose/gram, uterus ([1]; E2 blocked (estradiol 20 μg)): 0.38 ± 0.25 %ID/g
percentage injected dose/gram, uterus ([1]; PPT blocked (200 μg)): 0.35 ± 0.15 %ID/g
percentage injected dose/gram, uterus ([1]; 13 μCi iv): 0.33 ± 0.14 %ID/g
tissue distribution (in words) [2]: elevated lung uptake
percentage injected dose/gram, blood ([3]; DPN blocked (200 μg)): 0.17 ± 0.03 %ID/g
percentage injected dose/gram, blood ([3]; E2 blocked (estradiol 20 μg)): 0.19 ± 0.02 %ID/g
percentage injected dose/gram, blood ([3]; PPT blocked (200 μg)): 0.16 ± 0.03 %ID/g
percentage injected dose/gram, blood ([3]; 18 μCi iv): 0.23 ± 0.07 %ID/g
percentage injected dose/gram, bone ([3]; DPN blocked (200 μg)): 0.37 ± 0.07 %ID/g
percentage injected dose/gram, bone ([3]; E2 blocked (estradiol 20 μg)): 0.33 ± 0.02 %ID/g
percentage injected dose/gram, bone ([3]; PPT blocked (200 μg)): 0.34 ± 0.05 %ID/g
percentage injected dose/gram, bone ([3]; 18 μCi iv): 0.40 ± 0.10 %ID/g
percentage injected dose/gram, fat ([3]; DPN blocked (200 μg)): 0.53 ± 0.18 %ID/g
percentage injected dose/gram, fat ([3]; E2 blocked (estradiol 20 μg)): 0.50 ± 0.11 %ID/g
percentage injected dose/gram, fat ([3]; PPT blocked (200 μg)): 0.53 ± 0.16 %ID/g
percentage injected dose/gram, fat ([3]; 18 μCi iv): 0.49 ± 0.12 %ID/g
percentage injected dose/gram, heart ([3]; DPN blocked (200 μg)): 0.15 ± 0.02 %ID/g
percentage injected dose/gram, heart ([3]; E2 blocked (estradiol 20 μg)): 0.14 ± 0.01 %ID/g
percentage injected dose/gram, heart ([3]; PPT blocked (200 μg)): 0.14 ± 0.02 %ID/g
percentage injected dose/gram, heart ([3]; 18 μCi iv): 0.17 ± 0.03 %ID/g
percentage injected dose/gram, kidney ([3]; DPN blocked (200 μg)): 0.59 ± 0.11 %ID/g
percentage injected dose/gram, kidney ([3]; E2 blocked (estradiol 20 μg)): 0.55 ± 0.08 %ID/g
percentage injected dose/gram, kidney ([3]; PPT blocked (200 μg)): 0.51 ± 0.09 %ID/g
percentage injected dose/gram, kidney ([3]; 18 μCi iv): 0.66 ± 0.12 %ID/g
percentage injected dose/gram, liver ([3]; DPN blocked (200 μg)): 1.41 ± 0.22 %ID/g
percentage injected dose/gram, liver ([3]; E2 blocked (estradiol 20 μg)): 1.51 ± 0.13 %ID/g
percentage injected dose/gram, liver ([3]; PPT blocked (200 μg)): 1.40 ± 0.12 %ID/g
percentage injected dose/gram, liver ([3]; 18 μCi iv): 1.67 ± 0.31 %ID/g
percentage injected dose/gram, lung ([3]; DPN blocked (200 μg)): 0.36 ± 0.05 %ID/g
percentage injected dose/gram, lung ([3]; E2 blocked (estradiol 20 μg)): 0.38 ± 0.04 %ID/g
percentage injected dose/gram, lung ([3]; PPT blocked (200 μg)): 0.36 ± 0.06 %ID/g
percentage injected dose/gram, lung ([3]; 18 μCi iv): 0.41 ± 0.02 %ID/g
percentage injected dose/gram, muscle ([3]; DPN blocked (200 μg)): 0.13 ± 0.02 %ID/g
percentage injected dose/gram, muscle ([3]; E2 blocked (estradiol 20 μg)): 0.12 ± 0.01 %ID/g
percentage injected dose/gram, muscle ([3]; PPT blocked (200 μg)): 0.12 ± 0.02 %ID/g
percentage injected dose/gram, muscle ([3]; 18 μCi iv): 0.14 ± 0.03 %ID/g
percentage injected dose/gram, ovaries ([3]; DPN blocked (200 μg)): 0.32 ± 0.10 %ID/g
percentage injected dose/gram, ovaries ([3]; E2 blocked (estradiol 20 μg)): 0.30 ± 0.06 %ID/g
percentage injected dose/gram, ovaries ([3]; PPT blocked (200 μg)): 0.30 ± 0.05 %ID/g
percentage injected dose/gram, ovaries ([3]; 18 μCi iv): 0.34 ± 0.04 %ID/g
percentage injected dose/gram, spleen ([3]; DPN blocked (200 μg)): 0.12 ± 0.01 %ID/g
percentage injected dose/gram, spleen ([3]; E2 blocked (estradiol 20 μg)): 0.12 ± 0.07 %ID/g
percentage injected dose/gram, spleen ([3]; PPT blocked (200 μg)): 0.12 ± 0.02 %ID/g
percentage injected dose/gram, spleen ([3]; 18 μCi iv): 0.13 ± 0.16 %ID/g
percentage injected dose/gram, thymus ([3]; DPN blocked (200 μg)): 0.09 ± 0.02 %ID/g
percentage injected dose/gram, thymus ([3]; E2 blocked (estradiol 20 μg)): 0.10 ± 0.01 %ID/g
percentage injected dose/gram, thymus ([3]; PPT blocked (200 μg)): 0.08 ± 0.01 %ID/g
percentage injected dose/gram, thymus ([3]; 18 μCi iv): 0.10 ± 0.01 %ID/g
percentage injected dose/gram, uterus ([3]; DPN blocked (200 μg)): 0.22 ± 0.03 %ID/g
percentage injected dose/gram, uterus ([3]; E2 blocked (estradiol 20 μg)): 0.20 ± 0.04 %ID/g
percentage injected dose/gram, uterus ([3]; PPT blocked (200 μg)): 0.19 ± 0.02 %ID/g
percentage injected dose/gram, uterus ([3]; 18 μCi iv): 0.26 ± 0.07 %ID/g
Structure (SMILES): C[C@]12CC[C@@H]3c4ccc(O)cc4CC[C@@]3(CC[18F])[C@@H]1CC[C@@H]2O [[^18F]6, 8β-(2-[^18F]fluoroethyl)estradiol]
blocking of ovary uptake by estradiol, DPN or PPT (in words) ([1]; ovary): nor was it substantially blocked by any of the three agents

Source: paper PMC3465515 (Nuclear medicine and biology, 2012)
